Drawing on patent US20230097157A1, “Bicyclic Pyridin-2-one and pyrimidin-4-one Derivatives Useful As a Factor XIa Inhibitors” (Janssen Pharmaceutica NV, priority 2021, published 2023), this text covers IC50 for 19 molecules.

Experiment [1] addresses human plasma kallikrein (Homo sapiens, UniProt P03952). Put plainly: Kallikrein inhibition assay (FLINT) utilizing a quenched AMC peptide substrate Z-Gly-Pro-Arg-AMC. Particulars: kinetic (KIN) reads, read-out: Kallikrein KIN Inh IC50. The class given is biochemical. The method, boiled down:
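Human plasma kallikrein (2 nM final) pre-incubated 30 min with compound (11-point 3-fold series, top 1 μM, 2% DMSO), then 50 μM Z-Gly-Pro-Arg-AMC added. Buffer 50 mM Tris pH 7.5, 100 mM NaCl, 5 mM CaCl2, BSA, CHAPS. AMC fluorescence (340/440 nm) read kinetically over 30 min at room temperature, IC50 by 4-parameter logistic fit.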

The target of experiment [2] is Factor XIa (Homo sapiens, UniProt P03951). Nature of the experiment: Factor XIa inhibition assay (FLINT) utilizing a fluorophore-quencher pair peptide substrate 5Fam-[…]-K5Tamra. The class given is biochemical. Conditions: kinetic (KIN) reads, read-out: FXIa KIN Inh IC50. An outline of the steps: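 FXIa was preincubated with compound for 30 min at room temperature in Tris pH 7.5 buffer containing CaCl2, BSA and CHAPS, then reacted with 15 μM quenched 5Fam/Tamra peptide substrate. Fluorescence (485/520 nm) was read kinetically every 5 min for 30 min.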
Factor XIa, sequence (P03951 388-625 limits assumed): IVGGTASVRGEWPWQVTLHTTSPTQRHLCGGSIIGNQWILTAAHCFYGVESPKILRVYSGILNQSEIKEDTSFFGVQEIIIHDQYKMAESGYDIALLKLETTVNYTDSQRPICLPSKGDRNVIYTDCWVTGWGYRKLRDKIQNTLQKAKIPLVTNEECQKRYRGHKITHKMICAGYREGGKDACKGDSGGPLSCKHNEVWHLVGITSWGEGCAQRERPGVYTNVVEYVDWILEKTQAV
Factor XIa, sequence (P03951 19-387 partner limits assumed): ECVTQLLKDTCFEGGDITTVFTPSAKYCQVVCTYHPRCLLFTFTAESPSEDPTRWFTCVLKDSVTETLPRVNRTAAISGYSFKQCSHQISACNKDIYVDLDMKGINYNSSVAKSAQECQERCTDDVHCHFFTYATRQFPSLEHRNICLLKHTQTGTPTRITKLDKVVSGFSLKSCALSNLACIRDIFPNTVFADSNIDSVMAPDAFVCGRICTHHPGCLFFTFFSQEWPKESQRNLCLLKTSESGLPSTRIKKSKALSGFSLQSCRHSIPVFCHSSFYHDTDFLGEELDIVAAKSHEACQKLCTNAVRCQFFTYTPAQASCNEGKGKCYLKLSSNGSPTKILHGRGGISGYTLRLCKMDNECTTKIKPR

The structures appear in SMILES notation. Where two headings read alike, the source gives them in different places. Some results are limits rather than exact numbers.

human plasma kallikrein, sequence (P03952 391-638 limits assumed): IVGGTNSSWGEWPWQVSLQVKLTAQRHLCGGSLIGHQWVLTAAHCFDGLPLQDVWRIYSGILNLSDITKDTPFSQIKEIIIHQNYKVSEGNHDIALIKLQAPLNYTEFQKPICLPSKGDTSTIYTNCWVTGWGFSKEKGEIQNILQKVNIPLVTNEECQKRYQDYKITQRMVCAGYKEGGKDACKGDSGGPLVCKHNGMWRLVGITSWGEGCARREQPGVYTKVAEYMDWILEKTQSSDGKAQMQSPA
human plasma kallikrein, sequence (P03952 20-390 partner limits assumed): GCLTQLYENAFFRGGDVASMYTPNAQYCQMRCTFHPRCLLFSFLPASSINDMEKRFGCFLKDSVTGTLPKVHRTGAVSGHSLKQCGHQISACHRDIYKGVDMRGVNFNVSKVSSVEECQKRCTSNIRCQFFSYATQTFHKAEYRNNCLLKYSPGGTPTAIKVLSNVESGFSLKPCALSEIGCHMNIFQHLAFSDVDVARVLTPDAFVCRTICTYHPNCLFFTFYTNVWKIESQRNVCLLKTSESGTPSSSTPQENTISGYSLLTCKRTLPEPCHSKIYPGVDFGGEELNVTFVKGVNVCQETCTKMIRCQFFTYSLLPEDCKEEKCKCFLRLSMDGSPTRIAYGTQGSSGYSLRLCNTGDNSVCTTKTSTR

The IC50 is the concentration at which inhibition is half-maximal. Take `COC(=O)Nc1ccc(-c2cnc([C@H]3C[C@H](C)c4nc(-c5c(-n6cnnn6)ccc(Cl)c5F)cc(=O)n43)[nH]2)cc1` (stereo in doubt) [Example 124, Methyl (4-(2-((6*R,8*S)-2-(3-Chloro-2-fluoro-6-(1H-tetrazol-1-yl)phenyl)-8-methyl-4-oxo-4,6,7,8-tetrahydropyrrolo[1,2-a]pyrimidin-6-yl)-1H-imidazol-5-yl)phenyl)carbamate]: the IC50 was determined as 52.9 nM in experiment [1] (values in nM) and 8.3 nM in experiment [2] (values in nM).
On the same counts, the results for `COC(=O)Nc1ccc(-c2cnc([C@@H]3C[C@H](C)c4nc(-c5c(-n6cnnn6)ccc(Cl)c5F)cc(=O)n43)[nH]2)cc1` (stereo in doubt) [Example 125, Methyl (4-(2-((6*S,8*S)-2-(3-Chloro-2-fluoro-6-(1H-tetrazol-1-yl)phenyl)-8-methyl-4-oxo-4,6,7,8-tetrahydropyrrolo[1,2-a]pyrimidin-6-yl)-1H-imidazol-5-yl)phenyl)carbamate] are 3 nM and 0.5 nM.
Take `COC(=O)Nc1ccc(-c2cnc([C@@H]3C[C@@H](C)c4nc(-c5c(-n6cnnn6)ccc(Cl)c5F)cc(=O)n43)[nH]2)cc1` (stereo in doubt) [Example 126, Methyl (4-(2-((6*S,8*R)-2-(3-Chloro-2-fluoro-6-(1H-tetrazol-1-yl)phenyl)-8-methyl-4-oxo-4,6,7,8-tetrahydropyrrolo[1,2-a]pyrimidin-6-yl)-1H-imidazol-5-yl)phenyl)carbamate]: the IC50 worked out at 3.4 nM in experiment [1] (values in nM) and 0.3 nM in experiment [2] (values in nM).
On the same counts, the results for `COC(=O)Nc1ccc(-c2cnc([C@H]3C[C@@H](C)c4nc(-c5c(-n6cnnn6)ccc(Cl)c5F)cc(=O)n43)[nH]2)cc1` (stereo in doubt) [Example 127, Methyl (4-(2-((6*R,8*R)-2-(3-Chloro-2-fluoro-6-(1H-tetrazol-1-yl)phenyl)-8-methyl-4-oxo-4,6,7,8-tetrahydropyrrolo[1,2-a]pyrimidin-6-yl)-1H-imidazol-5-yl)phenyl)carbamate] are 723 nM and 190 nM.
For `Cc1nc(N)c(F)cc1-c1cnc([C@H]2C[C@@H](C)c3nc(-c4c(-n5cnnn5)ccc(Cl)c4F)cc(=O)n32)[nH]1` (stereo in doubt) [Example 128, (6*R,8*R)-6-(5-(6-Amino-5-fluoro-2-methylpyridin-3-yl)-1H-imidazol-2-yl)-2-(3-chloro-2-fluoro-6-(1H-tetrazol-1-yl)phenyl)-8-methyl-7,8-dihydropyrrolo[1,2-a]pyrimidin-4(6H)-one] the same measures were 747 nM and 283 nM.
As for `Cc1nc(N)c(F)cc1-c1cnc([C@@H]2C[C@H](C)c3nc(-c4c(-n5cnnn5)ccc(Cl)c4F)cc(=O)n32)[nH]1` (stereo in doubt) [Example 130, (6*S,8*S)-6-(5-(6-Amino-5-fluoro-2-methylpyridin-3-yl)-1H-imidazol-2-yl)-2-(3-chloro-2-fluoro-6-(1H-tetrazol-1-yl)phenyl)-8-methyl-7,8-dihydropyrrolo[1,2-a]pyrimidin-4(6H)-one], the IC50 in experiment [1] (unit μM) and in experiment [2] (unit μM) was more than 10000 nM each time.
With `C[C@H]1CC(c2ncc(-c3cnnn3C)[nH]2)n2c1nc(-c1c(-n3cnnn3)ccc(Cl)c1F)cc2=O` (stereo in doubt) [Example 136, (6*S,8*S)-2-(3-Chloro-2-fluoro-6-(1H-tetrazol-1-yl)phenyl)-8-methyl-6-(5-(1-methyl-1H-1,2,3-triazol-5-yl)-1H-imidazol-2-yl)-7,8-dihydropyrrolo[1,2-a]pyrimidin-4(6H)-one], the IC50 in experiment [1] (unit μM) was more than 10000 nM; in experiment [2] (values in nM), 566 nM.
For `C[C@@H]1C[C@H](c2ncc(-c3ccc(N)nc3F)[nH]2)n2c1nc(-c1c(-n3cnnn3)ccc(Cl)c1F)cc2=O` (stereo in doubt) [Example 138, (6R*,8R*)-6-(5-(6-Amino-2-fluoropyridin-3-yl)-1H-imidazol-2-yl)-2-(3-chloro-2-fluoro-6-(1H-tetrazol-1-yl)phenyl)-8-methyl-7,8-dihydropyrrolo[1,2-a]pyrimidin-4(6H)-one] the same measures were 4300 nM and 258 nM.
Regarding `C[C@@H]1C[C@H](c2ncc(-c3ccnn3C)[nH]2)n2c1nc(-c1c(-n3cnnn3)ccc(Cl)c1F)cc2=O` (stereo in doubt) [Example 143, (6R*,8R*)-2-(3-Chloro-2-fluoro-6-(1H-tetrazol-1-yl)phenyl)-8-methyl-6-(5-(1-methyl-1H-pyrazol-5-yl)-1H-imidazol-2-yl)-7,8-dihydropyrrolo[1,2-a]pyrimidin-4(6H)-one], the IC50 in experiment [1] (unit μM) and in experiment [2] (unit μM) was more than 10000 nM each time.
Turning to `C[C@H]1C[C@@H](c2ncc(-c3ccnn3C)[nH]2)n2c1nc(-c1c(-n3cnnn3)ccc(Cl)c1F)cc2=O` (stereo in doubt) [Example 144, (6S*,8S*)-2-(3-Chloro-2-fluoro-6-(1H-tetrazol-1-yl)phenyl)-8-methyl-6-(5-(1-methyl-1H-pyrazol-5-yl)-1H-imidazol-2-yl)-7,8-dihydropyrrolo[1,2-a]pyrimidin-4(6H)-one], the IC50 in experiment [1] (values in nM) was 246 nM; in experiment [2] (values in nM) it was 62.1 nM.
`C[C@H]1C[C@@H](c2ncc(-c3ccc(N)nc3F)[nH]2)n2c1nc(-c1c(-n3cnnn3)ccc(Cl)c1F)cc2=O` (stereo in doubt) [Example 150, (6S*,8S*)-6-(5-(6-Amino-2-fluoropyridin-3-yl)-1H-imidazol-2-yl)-2-(3-chloro-2-fluoro-6-(1H-tetrazol-1-yl)phenyl)-8-methyl-7,8-dihydropyrrolo[1,2-a]pyrimidin-4(6H)-one]: the IC50 in experiment [1] (values in nM) turned out to be 25.9 nM; in experiment [2] (values in nM) it was 0.9 nM.
For `Nc1ccc(-c2cnc(C3CCCCc4cc(-c5c(-n6cnnn6)ccc(Cl)c5F)cc(=O)n43)[nH]2)c(F)n1` (centres unmarked) [Cmpd (IV), 6-(5-(6-amino-2-fluoropyridin-3-yl)-1H-imidazol-2-yl)-2-(3-chloro-2-fluoro-6-(1H-tetrazol-1-yl)phenyl)-7,8,9,10-tetrahydropyrido[1,2-a]azepin-4(6H)-one], the values for the half-maximal inhibitory concentration (IC50) in experiment [1] (values in nM) and in experiment [2] (values in nM) were 160 nM and 48 nM, respectively.
`O=c1cc(-c2c(-n3cnnn3)ccc(Cl)c2F)cc2n1[C@H](c1ncc(-c3ccnc(CO)c3F)[nH]1)CC21CC1` [Example 7, (S)-7′-(3-Chloro-2-fluoro-6-(1H-tetrazol-1-yl)phenyl)-3′-(5-(3-fluoro-2-(hydroxymethyl)pyridin-4-yl)-1H-imidazol-2-yl)-2′,3′-dihydro-5′H-spiro[cyclopropane-1,1′-indolizin]-5′-one]: the IC50 was 38 nM in experiment [1] (values in nM) and 6.9 nM in experiment [2] (values in nM).
On the same counts, the results for `C[C@H]1C[C@@H](c2ncc(-c3ccc(NS(C)(=O)=O)cc3)[nH]2)n2c1cc(-c1c(-n3cnnn3)ccc(Cl)c1F)cc2=O` [Example 11, N-(4-(2-((1S,3S)-7-(3-chloro-2-fluoro-6-(1H-tetrazol-1-yl)phenyl)-1-methyl-5-oxo-1,2,3,5-tetrahydroindolizin-3-yl)-1H-imidazol-5-yl)phenyl)methanesulfonamide] are 11.4 nM and 2.2 nM.
For the molecule `CNC(=O)c1ccc(-c2cnc([C@@H]3C[C@H](C)c4cc(-c5c(-n6cnnn6)ccc(Cl)c5F)cc(=O)n43)[nH]2)cn1` [Example 12, 5-(2-((1S,3S)-7-(3-Chloro-2-fluoro-6-(1H-tetrazol-1-yl)phenyl)-1-methyl-5-oxo-1,2,3,5-tetrahydroindolizin-3-yl)-1H-imidazol-5-yl)-N-methylpicolinamide], the IC50 in experiment [1] (values in nM) is 205 nM; in experiment [2] (values in nM) it was 63.7 nM.
For `CNC(=O)c1cc(-c2cnc([C@@H]3C[C@H](C)c4cc(-c5c(-n6cnnn6)ccc(Cl)c5F)cc(=O)n43)[nH]2)ccn1` [Example 13, 4-(2-((1S,3S)-7-(3-Chloro-2-fluoro-6-(1H-tetrazol-1-yl)phenyl)-1-methyl-5-oxo-1,2,3,5-tetrahydroindolizin-3-yl)-1H-imidazol-5-yl)-N-methylpicolinamide] the same measures were 36.9 nM and 12.7 nM.
For the molecule `C[C@H]1C[C@@H](c2ncc(-c3c(C#N)cnn3C)[nH]2)n2c1cc(-c1c(-n3cnnn3)ccc(Cl)c1F)cc2=O` [Example 14, 5-(2-((1S,3S)-7-(3-Chloro-2-fluoro-6-(1H-tetrazol-1-yl)phenyl)-1-methyl-5-oxo-1,2,3,5-tetrahydroindolizin-3-yl)-1H-imidazol-5-yl)-1-methyl-1H-pyrazole-4-carbonitrile], the IC50 was 4700 nM in experiment [1] (unit μM) and 189 nM in experiment [2] (values in nM).
Turning to `C[C@H]1C[C@@H](c2ncc(-c3cc(N)nn3C)[nH]2)n2c1cc(-c1c(-n3cnnn3)ccc(Cl)c1F)cc2=O` [Example 15, (1S,3S)-3-(5-(3-Amino-1-methyl-1H-pyrazol-5-yl)-1H-imidazol-2-yl)-7-(3-chloro-2-fluoro-6-(1H-tetrazol-1-yl)phenyl)-1-methyl-2,3-dihydroindolizin-5(1H)-one], the IC50 in experiment [1] (unit μM) was found to be 3200 nM; in experiment [2] (values in nM) it was 165 nM.
For the molecule `C[C@H]1C[C@@H](c2ncc(-c3ccc(=O)[nH]c3)[nH]2)n2c1cc(-c1c(-n3cnnn3)ccc(Cl)c1F)cc2=O` [Example 16, (1S,3S)-7-(3-Chloro-2-fluoro-6-(1H-tetrazol-1-yl)phenyl)-1-methyl-3-(5-(6-oxo-1,6-dihydropyridin-3-yl)-1H-imidazol-2-yl)-2,3-dihydroindolizin-5(1H)-one], the IC50 in experiment [1] (values in nM) amounted to 447 nM; in experiment [2] (values in nM) it was 78.1 nM.
